Assay results taken from PubChem BioAssay AID720616 (Broad Institute, 2013).

Tested on: U-251 glioblastoma viability, CellTiter-Glo ATP luminescence
Experiment: U-251 glioblastoma cell viability loss, late-stage follow-up, mechanism study for HRAS target identification, CellTiter-Glo ATP luminescence, several timepoints, dry powder (AID 720616)

SMILES	AC50 (measured here: 8 h treatment)	AC50 (measured here: 24 h treatment)	AC50 (measured here: 48 h treatment)
COc1ccc(N(C(=O)CCl)C(C(=O)NCCc2ccccc2)c2cccs2)cc1Cl (centres undefined)	0.734 µM	0.709 µM	1.38 µM
COC(=O)c1ccc([C@@H]2c3[nH]c4ccccc4c3C[C@@H](C(=O)OC)N2C(=O)CCl)cc1	1.1 µM	0.856 µM	1.25 µM
C#CCCCC(=O)NCCOCCOCCOc1ccc(N(C(=O)CCl)C(C(=O)NCCc2ccccc2)c2cccs2)cc1Cl (centres undefined)	7.55 µM	4.09 µM	10.2 µM
CC(C)(C)OC(=O)NCCOCCOCCOc1ccc(N(C(=O)CCl)C(C(=O)NCCc2ccccc2)c2cccs2)cc1Cl (centres undefined)	0.912 µM	1.22 µM	2.21 µM
Cc1onc(C(=O)N2CCN(C(c3ccc(Cl)cc3)c3ccc(Cl)cc3)CC2)c1[N+](=O)[O-]		> 70 µM	> 70 µM
